Test results as given in ChEMBL document CHEMBL1201862, “PubChem BioAssay data set” (2004).
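These data come from cells grown in 96-well plates and exposed to compound for 48 hours at five concentrations. GI50 = concentration required for 50% inhibition of growth.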 Active and inactive are the calls of the source. No stated cut-off is given here; in the data, active = GI50 up to about 1.1 µM and inactive = higher.

Experiments:
Experiment in all cases: DTP human tumour cell line panel, 48 h
HCC 2998 = system: HCC 2998
HT-29 = system: HT-29
IGROV-1 = system: IGROV-1
K562 = system: K562
KM12 = system: KM12
MCF7 = system: MCF7
NCI-H226 = system: NCI-H226
NCI-H460 = system: NCI-H460
NCI-H522 = system: NCI-H522
NCI/ADR-RES = system: NCI/ADR-RES
OVCAR-5 = system: OVCAR-5
RPMI-8226 = system: RPMI-8226
SF-268 = system: SF-268
SK-MEL-2 = system: SK-MEL-2
SN12C = system: SN12C
SNB-19 = system: SNB-19
SW-620 = system: SW-620
LOX IMVI = system: LOX IMVI
SK-OV-3 = system: SK-OV-3
HOP-62 = system: HOP-62

Compound | GI50 (HCC 2998) | GI50 (HT-29) | GI50 (IGROV-1) | GI50 (K562) | GI50 (KM12) | GI50 (MCF7) | GI50 (NCI-H226) | GI50 (NCI-H460) | GI50 (NCI-H522) | GI50 (NCI/ADR-RES) | GI50 (OVCAR-5) | GI50 (RPMI-8226) | GI50 (SF-268) | GI50 (SK-MEL-2) | GI50 (SN12C) | GI50 (SNB-19) | GI50 (SW-620) | GI50 (LOX IMVI) | GI50 (SK-OV-3) | GI50 (HOP-62)
CC(=O)Nc1ccc(COC(O)CN2CCCCC2)cc1[N+](=O)[O-] (stereo not drawn) | > 100 µM (inactive) | > 100 µM (inactive) | > 100 µM (inactive) | > 100 µM (inactive) | > 100 µM (inactive) | > 100 µM (inactive) | > 100 µM (inactive) | > 100 µM (inactive) | > 100 µM (inactive) | > 100 µM (inactive) | > 100 µM (inactive) | > 100 µM (inactive) | > 100 µM (inactive) | > 100 µM (inactive) | > 100 µM (inactive) | > 100 µM (inactive) | > 100 µM (inactive) | – | – | –
C/C(=N\NC(=S)N1CCC(N2CCCCC2)CC1)c1ccccn1 | 11.7 µM (inactive) | 3.17 µM (inactive) | 3.54 µM (inactive) | 1.29 µM (inactive) | 2.81 µM (inactive) | 2.87 µM (inactive) | – | 2.73 µM (inactive) | < 0.01 µM (active) | 2.26 µM (inactive) | 4.11 µM (inactive) | 2.2 µM (inactive) | 3.68 µM (inactive) | > 100 µM (inactive) | 2.7 µM (inactive) | 3.7 µM (inactive) | 3.1 µM (inactive) | 2.82 µM (inactive) | 4.93 µM (inactive) | –
O=C1NC(N2CCCCC2)=N/C1=C\c1ccc(Cl)cc1 | 19.8 µM (inactive) | 16.6 µM (inactive) | 25.9 µM (inactive) | – | 25.1 µM (inactive) | 47.2 µM (inactive) | 22.3 µM (inactive) | – | 21 µM (inactive) | 22 µM (inactive) | > 100 µM (inactive) | 66.2 µM (inactive) | 38.2 µM (inactive) | > 100 µM (inactive) | 72.6 µM (inactive) | 37 µM (inactive) | 68.4 µM (inactive) | 34.5 µM (inactive) | > 100 µM (inactive) | 46.7 µM (inactive)
COc1cc2c(NCCN(C)C)nc3c4cc5c(cc4ccc3c2cc1OC)OCO5 | 4.59 µM (inactive) | 3.37 µM (inactive) | 2.8 µM (inactive) | 3.23 µM (inactive) | 4.18 µM (inactive) | 1.84 µM (inactive) | 3.7 µM (inactive) | 0.193 µM (active) | 3.9 µM (inactive) | 4.16 µM (inactive) | 3.42 µM (inactive) | 2.56 µM (inactive) | 4.78 µM (inactive) | 6.04 µM (inactive) | 4.53 µM (inactive) | 3.56 µM (inactive) | 3.36 µM (inactive) | – | 4.78 µM (inactive) | 3.54 µM (inactive)
CNC(C#N)c1ccc(OC)cc1 (stereo not drawn) | > 100 µM (inactive) | 61.1 µM (inactive) | > 100 µM (inactive) | 34.1 µM (inactive) | 78.9 µM (inactive) | > 100 µM (inactive) | > 100 µM (inactive) | > 100 µM (inactive) | 75.5 µM (inactive) | > 100 µM (inactive) | > 100 µM (inactive) | – | > 100 µM (inactive) | 26.4 µM (inactive) | > 100 µM (inactive) | > 100 µM (inactive) | 94.2 µM (inactive) | > 100 µM (inactive) | > 100 µM (inactive) | –
BrC1(c2ccccc2)C[n+]2c(-c3ccccc3)cc(-c3ccccc3)cc2-c2ccccc21 (stereo not drawn) | 0.111 µM (active) | 0.34 µM (active) | 0.289 µM (active) | 0.159 µM (active) | 0.299 µM (active) | 0.184 µM (active) | 0.659 µM (active) | 0.444 µM (active) | 0.384 µM (active) | 17.9 µM (inactive) | 1.27 µM (inactive) | 0.127 µM (active) | 0.409 µM (active) | 0.317 µM (active) | 3.88 µM (inactive) | 0.551 µM (active) | 0.426 µM (active) | 0.363 µM (active) | – | 0.611 µM (active)
Cn1cc(S(=O)(=O)NC(=O)Nc2ccc(Cl)cc2)c(=O)c2ccc(Cl)cc21 | 85.3 µM (inactive) | > 100 µM (inactive) | > 100 µM (inactive) | 47.1 µM (inactive) | 69.7 µM (inactive) | > 100 µM (inactive) | 75 µM (inactive) | > 100 µM (inactive) | 20.9 µM (inactive) | 38 µM (inactive) | > 100 µM (inactive) | – | > 100 µM (inactive) | > 100 µM (inactive) | 99.3 µM (inactive) | 87.9 µM (inactive) | > 100 µM (inactive) | > 100 µM (inactive) | > 100 µM (inactive) | > 100 µM (inactive)
